Read-outs that look alike come from different tables or passages of the source.
Experiments:
[1] = system: CHO cells expressing G544V-mutant LDL receptor; test: Restoration of trafficking of mutant LDL receptor in cells (immunoblot for 160 kDa mature glycosylated form); assay type: cell-based; conditions: for EC50: ± standard error of fit
Procedure: (§1) T-Rex-CHO-K1 cloned cell lines expressing wild-type and mutant LDL receptor were cultured as described ([Sørensen et al., 2006]; [Tveten et al., 2007]), and according to the manufacturer’s protocols (Thermo Fisher Scientific; CHO cell Lot No. 1610593). The expression in CHO cells of G544V-mutant or wild-type LDL receptor protein was induced with 1 µg/mL tetracycline for 24 hr prior to experiments with 4-PBA or 4-PBA analogs ([Tveten et al., 2007]). To compare pharmacological potency of 4-PBA analogs, cells were incubated with the compounds for 2 hr at 37°C in 12-well 22 mm plates (Corning Costar #3513). For experiments concerning the extracellular secretion of GRP94 (Figure 5), the incubations with 4-PBA were extended to 24 hr. Cells were broken in lysis buffer (1% (v/v) Triton X-100, 150 mM NaCl, 10 mM EDTA, 50 mM Tris-HCl pH 7.5) and cleared by centrifugation (15,000 g for 15 min). Cellular protein concentration was measured using ‘Protein Assay Kit II’ (Bio-Rad) with bovine serum albumin as standard. Lysates were added to Laemmli sample buffer (New England BioLabs) containing 130 mM dithiothreitol and heated for 15 min at 55°C. Cell medium (containing secreted proteins) was added to Laemmli sample buffer containing 5% β-mercaptoethanol and boiled for 5 min. Samples were run on 4–15% Tris/HCl Criterion gels (Bio-Rad) followed by immunoblotting.
Proteins were electrotransferred from SDS-PAGE gels onto Immun-Blot low fluorescence PVDF membrane (Bio-Rad) and blocked using TBST (5% BioRad Blocker in 25 mM Tris-HCl pH 7.4, 150 mM NaCl, 0.05% (v/v) Tween 20). Membranes were incubated at 4°C overnight with primary antibodies in TBST followed by incubation with horseradish peroxidase-conjugated secondary antibodies. Chemiluminescence signals were generated by incubation with ECL Prime Western Blotting detection reagent (GE Healthcare #RPN2236). […] Chemiluminescence signals were detected using a ChemiDoc MP Imaging System and acquired with Image Lab 5.0 software (Bio-Rad). Quantification of protein band intensities was performed using Image Gauge software Version 4.1 (Fujifilm), including background correction of the raw image data.
Chemiluminescence signals from western blots for the glycosylated (160 kDa) form of G544V-mutant LDL receptor were quantified as a percentage of total LDL receptor protein (glycosylated + unglycosylated bands). Data at high concentrations of 4-PBA analogs, which show inhibition of LDL receptor trafficking, were omitted. Data from individual experiments were normalized (to obtain maximal response = 100%), so that data from replicate experiments (n = 4–5) could be averaged. Logistic fitting to the dose-response data was carried out with program Ultrafit (Elsevier Biosoft).

human Sec24a = target: T1, human Sec24a (Homo sapiens, UniProt O95486); test: Fluorescence polarization competition binding assay (displacement of 5-Fam-[…]); conditions: fluorescence polarization at 22°C; 5 µM probe, 22 µM Sec24a; ± standard error of fit; read-out: IC50, displacement of fluorescent probe 5-Fam-[…] from Sec24a
T1 construct: His6 (TEV-cleavable) (N, cleaved yes); made in house; host or cells: High Five insect cells (baculovirus)
T1 sequence (O95486 341-1093): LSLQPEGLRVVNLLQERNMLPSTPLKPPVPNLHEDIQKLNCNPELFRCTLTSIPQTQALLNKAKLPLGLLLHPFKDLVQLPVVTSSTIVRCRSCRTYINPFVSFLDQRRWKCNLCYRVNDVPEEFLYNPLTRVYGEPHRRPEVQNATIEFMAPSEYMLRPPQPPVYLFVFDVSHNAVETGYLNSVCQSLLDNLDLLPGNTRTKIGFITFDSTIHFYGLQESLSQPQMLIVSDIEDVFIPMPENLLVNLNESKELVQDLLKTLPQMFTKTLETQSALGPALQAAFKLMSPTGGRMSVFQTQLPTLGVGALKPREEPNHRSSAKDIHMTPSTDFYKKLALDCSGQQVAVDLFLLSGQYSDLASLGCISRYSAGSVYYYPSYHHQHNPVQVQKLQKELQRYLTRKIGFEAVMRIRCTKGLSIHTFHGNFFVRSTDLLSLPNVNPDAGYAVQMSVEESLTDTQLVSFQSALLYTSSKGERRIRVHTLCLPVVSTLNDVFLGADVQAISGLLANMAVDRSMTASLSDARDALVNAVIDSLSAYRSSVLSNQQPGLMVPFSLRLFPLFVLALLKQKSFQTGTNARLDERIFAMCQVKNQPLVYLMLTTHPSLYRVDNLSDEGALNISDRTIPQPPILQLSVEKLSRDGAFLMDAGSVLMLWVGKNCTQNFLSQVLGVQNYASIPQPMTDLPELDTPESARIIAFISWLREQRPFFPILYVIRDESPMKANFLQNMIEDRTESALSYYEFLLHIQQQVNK

[2] = target: T2, COPII coat (Sec23a/24d) packaging of p24 proteins and ERGIC-53 (Homo sapiens, UniProt O94855); test: In vitro COPII vesicle budding assay with permeabilized CHO (T-Rex-CHO-K1) cells; assay type: biochemical, H. sapiens; conditions: 10 mM 4-PBA; corrected for budding yield
T2 construct: Sec23a/Sec24d (full-length protein) for COPII budding assays; His6 (TEV-cleavable) (N); made in house; host or cells: High Five insect cells (Sec23a/24d, Sec13a/31a); E. coli BL21(DE3) (Sar1a); added to digitonin-permeabilized T-Rex-CHO-K1 cells
T2 sequence (O94855 whole entry): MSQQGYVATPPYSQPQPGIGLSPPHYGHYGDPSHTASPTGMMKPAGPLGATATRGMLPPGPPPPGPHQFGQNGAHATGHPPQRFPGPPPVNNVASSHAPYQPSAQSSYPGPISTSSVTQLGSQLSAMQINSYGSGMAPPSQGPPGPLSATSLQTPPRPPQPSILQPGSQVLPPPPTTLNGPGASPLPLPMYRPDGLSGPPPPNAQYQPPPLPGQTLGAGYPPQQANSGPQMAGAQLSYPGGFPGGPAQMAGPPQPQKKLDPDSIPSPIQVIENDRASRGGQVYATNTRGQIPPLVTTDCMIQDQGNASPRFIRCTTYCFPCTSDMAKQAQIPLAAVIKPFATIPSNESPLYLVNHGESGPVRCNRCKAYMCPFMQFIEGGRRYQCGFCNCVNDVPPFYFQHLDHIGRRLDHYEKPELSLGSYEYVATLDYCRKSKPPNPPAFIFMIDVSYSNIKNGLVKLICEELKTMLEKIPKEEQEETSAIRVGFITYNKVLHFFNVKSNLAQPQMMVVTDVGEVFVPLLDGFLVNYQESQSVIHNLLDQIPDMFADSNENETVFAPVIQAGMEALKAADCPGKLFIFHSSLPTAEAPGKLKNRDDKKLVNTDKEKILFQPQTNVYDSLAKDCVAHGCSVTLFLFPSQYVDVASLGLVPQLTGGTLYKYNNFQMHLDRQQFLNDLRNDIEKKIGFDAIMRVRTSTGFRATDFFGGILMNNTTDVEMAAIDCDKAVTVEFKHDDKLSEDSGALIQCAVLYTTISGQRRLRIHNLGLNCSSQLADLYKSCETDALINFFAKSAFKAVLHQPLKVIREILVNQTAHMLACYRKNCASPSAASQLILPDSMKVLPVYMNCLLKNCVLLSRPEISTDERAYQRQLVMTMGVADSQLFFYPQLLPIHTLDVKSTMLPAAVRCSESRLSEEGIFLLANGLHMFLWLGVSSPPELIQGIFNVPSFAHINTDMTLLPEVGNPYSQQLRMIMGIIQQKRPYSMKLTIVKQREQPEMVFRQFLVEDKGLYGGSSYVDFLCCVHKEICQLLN
T2 sequence (Q15436 whole entry partner): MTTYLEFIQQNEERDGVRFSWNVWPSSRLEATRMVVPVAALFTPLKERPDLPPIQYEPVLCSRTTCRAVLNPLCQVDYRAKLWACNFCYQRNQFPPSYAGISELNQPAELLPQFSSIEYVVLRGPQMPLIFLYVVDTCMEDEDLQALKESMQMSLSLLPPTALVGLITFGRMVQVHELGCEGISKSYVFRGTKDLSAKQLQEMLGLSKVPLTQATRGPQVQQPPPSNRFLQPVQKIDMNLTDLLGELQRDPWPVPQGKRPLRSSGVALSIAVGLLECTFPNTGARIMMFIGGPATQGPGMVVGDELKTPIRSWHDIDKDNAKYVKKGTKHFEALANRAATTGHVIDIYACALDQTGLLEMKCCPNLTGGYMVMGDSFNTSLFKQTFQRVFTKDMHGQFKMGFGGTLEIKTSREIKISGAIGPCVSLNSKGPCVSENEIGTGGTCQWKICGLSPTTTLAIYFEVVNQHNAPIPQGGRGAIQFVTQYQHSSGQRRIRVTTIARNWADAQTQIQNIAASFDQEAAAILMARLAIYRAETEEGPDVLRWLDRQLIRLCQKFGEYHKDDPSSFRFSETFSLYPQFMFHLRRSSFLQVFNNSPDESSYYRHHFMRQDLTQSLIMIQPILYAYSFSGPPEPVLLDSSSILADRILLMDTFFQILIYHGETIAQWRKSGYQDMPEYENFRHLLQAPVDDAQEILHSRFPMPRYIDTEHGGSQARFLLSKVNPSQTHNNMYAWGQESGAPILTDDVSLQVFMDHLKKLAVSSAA
Procedure: In vitro COPII budding reactions used permeabilized cells prepared from the T-Rex-CHO-K1 parent line and from the clone that expresses mutant LDL receptor. Permeabilization was carried out as described ([Mancias and Goldberg, 2008]) with modifications. Two culture dishes (150 mm) of cells were prepared with cells at no greater than 60% confluence. Cells were washed with 20 ml PBS at 37°C and then trypsinized with 2 ml of Trypsin-EDTA (0.05%, Gibco) for 1 min at 37°C; 100 µl of Soybean Trypsin Inhibitor (2 mg/ml; Sigma) was added to each culture plate. To this was added 5.5 ml ice-cold KHM buffer (110 mM KOAc, 20 mM Hepes pH 7.2, 2 mM magnesium acetate) per plate, and cells were transferred to a 15 ml Falcon tube and pelleted gently (250 g for 3 min at 4°C). The supernatant was aspirated and the cells resuspended in 6 ml ice-cold KHM buffer. To permeabilize the cells, 6 µl digitonin stock solution (40 mg/ml in dimethyl sulfoxide) was added, cells were mixed by inversion and incubated on ice for 5 min. To terminate permeabilization, cells were diluted to 14 ml with KHM buffer and immediately pelleted at 250 g for 3 min at 4°C. […] The protein concentration was measured using protein assay kit (Bio-Rad) with BSA as standard; routinely, the measurement is in the range 4–5 mg/ml. […]

[3] = system: CHO cells (stressed, expressing G544V-mutant LDL receptor, and unstressed wild-type); test: Extracellular secretion of GRP94 from CHO cells; assay type: cell-based; conditions: 24 hr at 37°C
Procedure: as §1

B site of Sec24a = target: T3, B site of Sec24a (Homo sapiens, UniProt O95486); test: X-ray crystallography of ligand-soaked Sec23a/Sec24a•Sec22b crystals; assay type: binding; conditions: crystals soaked with 4-PBA at 1, 15 and 50 mM or with 5 mM ΦC signal peptide
T3 construct: His6 (TEV-cleavable) (N, cleaved yes); made in house; host or cells: High Five insect cells (Sec23a/Sec24a); E. coli (Sec22b)
T3 sequence (Q15436 whole entry partner, one chain of several): as the sequence (Q15436 whole entry partner) above
T3 sequence (O75396 1-195 partner limits assumed, one chain of several): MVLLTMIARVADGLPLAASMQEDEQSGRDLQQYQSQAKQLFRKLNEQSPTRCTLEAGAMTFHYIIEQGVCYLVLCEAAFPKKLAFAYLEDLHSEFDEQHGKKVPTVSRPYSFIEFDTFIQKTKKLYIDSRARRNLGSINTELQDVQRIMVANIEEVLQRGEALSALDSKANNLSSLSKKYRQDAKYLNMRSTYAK
Procedure: The Sec23a/Sec24a•Sec22b complex was crystallized as described previously ([Mancias and Goldberg, 2007]) from a solution comprising 10% (w/v) PEG 4000, 500 mM Na acetate and 50 mM Tris-HCl pH 7.9. Since acetate ions compete with ligand binding at the B site, crystals were transferred into a soaking buffer of 10% (w/v) PEG 4000, 600 mM NaCl, 50 mM Tris-HCl buffer, pH 7.9. (Two acetate ions are observed bound to B-site arginine residues in electron density maps calculated from Sec23a/Sec24a•Sec22b crystallographic data, PDB 2NUT). To this was added 4-PBA (0–50 mM) or 5 mM ΦC signal peptide, and ligand soaking proceeded for five hours at 22°C. Crystals were then transferred to an equivalent ligand-containing buffer with additional 24% ethylene glycol cryo-protectant, and were flash frozen in liquid nitrogen. Crystals treated in this manner diffracted synchrotron X-rays to 2.5–2.8 Å resolution.
X-ray diffraction data were collected at 0.979 Å wavelength on beamline ID-24C or ID-24E of the Advanced Photon Source, Argonne National Laboratory. Data were processed with the program HKL2000 ([Otwinowski and Minor, 1997]; Tables 1 and 2). Structure refinement was carried out using Phenix ([Adams et al., 2010]), initially by rigid-body improvement, followed by positional refinement, based on the published coordinates of Sec23a/Sec24a•Sec22b (PDB 2NUT; [Mancias and Goldberg, 2007]). […]

[4] = Cricetulus griseus, CHO, 2 h, read-out: EC50, acquisition of mutant LDL receptor glycosylation (restoration of trafficking), CHO cells expressing G544V-mutant LDL receptor, 2 hr at 37°C

Row | SMILES | EC50 [1, 4] | IC50 (human Sec24a) | fraction of mutant LDL receptor with restored trafficking ([1]; 10 mM 4-PBA applied to cells) | EC50 ([1]; read-out: EC50, acquisition of mutant LDL receptor glycosylation (restoration of trafficking), CHO cells expressing G544V-mutant LDL receptor, 2 hr at 37°C) | reduction in the packaging rate of p24 proteins and ERGIC-53 into COPII vesicles [2] | cell lysis (GAPDH marker) and loss of GRP94 secretion ([3]; 45 mM 4-PBA) | concentration giving maximal secretion of GRP94 ([3]; stressed and unstressed cells) | binding to Sec24a in crystals (difference Fourier maps / residual electron density) (B site of Sec24a)
1 | O=C(O)CCCCc1ccccc1 [5-PVA, 5-phenylvalerate] | 3.36 ± 0.42 mM | 0.99 ± 0.08 mM |  |  |  |  |  | 
2 | Cc1ccc(CCCC(=O)O)cc1 [Tolyl-BA, 4-(4-tolyl)butyrate] | 4.89 ± 0.24 mM | 1.7 ± 0.16 mM |  |  |  |  |  | 
3 | O=C(O)CCc1ccc(O)cc1 [Hydroxy-PPA, 3-(4-hydroxyphenyl)propionate] | 21.7 ± 1.03 mM | 9.22 ± 0.94 mM |  |  |  |  |  | 
4 | O=C(O)CCCc1ccccc1 [4-PBA, 4-phenylbutyrate] | 6.4 mM | 3.66 ± 0.22 mM | ≤ 25% | 6.37 ± 0.5 mM | 50% | cell lysis is detected | 20 mM | clear evidence for binding
5 | COc1ccc(CCCC(=O)O)cc1 [Methoxy-PBA, 4-(4-methoxyphenyl)butyrate] | 8.63 ± 0.98 mM | 4.14 ± 0.7 mM |  |  |  |  |  | 
6 | O=C(O)CCc1ccccc1 [3-PPA, 3-phenylpropionate] | 7.48 ± 0.68 mM | 4.11 ± 0.34 mM |  |  |  |  |  | 
7 | O=C(O)CCCc1ccc(O)cc1 [Hydroxy-PBA, 4-(4-hydroxyphenyl)butyrate] | 10.6 ± 0.4 mM | 5.04 ± 0.69 mM |  |  |  |  |  | 

— PMC5464768, “ER retention is imposed by COPII protein sorting and attenuated by 4-phenylbutyrate” (eLife, 2017)
